Reference: PMC11636681, “Pharmacokinetics and pharmacodynamics of antibacterial peptide NZX in Staphylococcus aureus mastitis mouse model” (Applied Microbiology and Biotechnology, 2024)
Marks after values point to notes of the source that are not given here. Positions of bridges follow the written chain, without caps; N, C: chain ends. Residues, ends and D or L forms follow the SMILES beside them.

Key:
three S. aureus strains = test: Mouse mastitis model, histopathological analysis and scoring of mammary tissues; assay type: in vivo; conditions: mice infected with the three S. aureus strains, 100 μg/gland
Text: The 7 to 8-weeks old ICR mice (80 females, 40 males) were housed in independent ventilated cages, and feed with autoclaved laboratory food and water. Female mice in heat were put into the cage of males (females:males, 2:1) overnight and checked for vaginal plugs at the following morning to induce pregnancy. ICR-lactating mice were used at 6 to 8 days after the birth of the offspring. The mouse mastitis model was established as previously described (Li et al. [2017]). Mice were randomly divided into nine groups: NC group (uninfected group), PC group (infected but without treatment), NZX groups (25, 50, 100, 200 and 400 μg/gland, respectively), lincomycin group (100 μg/gland), and ceftiofur group (100 μg/gland). Each experimental group has six independent experiments with three mice. Specially, the pups were removed 1 h before the intramammary injection of both L4 (on the left) and R4 (on the right) abdominal mammal glands. […]
After mouse sacrifice, one part of mammary tissue was taken for bacterial count, and the other part was used for the histopathological analysis. […] The bacterial number on each plate was counted and the results were expressed as Log10 CFU per gram of mammary tissues. […]

Stability of NZX in milk = assay type: in vitro ADME; conditions: 100 μg/mL in milk, 37 °C, SPE then HPLC–UV 280 nm, mean peak area / initial value, read-out: retention rate in milk
Experimental: (§1) A 0.5 g of mammary tissue or milk were weighed, homogenized, and transferred to a 10 mL polypropylene centrifuge tube, respectively, extracted sequentially by adding into a 3 mL of 0.1 M of McFarland buffer and 1% trichloroacetic acid (TCA), and cleaned by a C18 solid-phase extraction (SPE) cartridge (Oasis MAX 3 cc 60 mg and Oasis HLB 3 cc 60 mg, respectively, Waters, USA). Afterwards, a 2 mL of 45% acetonitrile with 2% formic acid and 3 mL of 45% acetonitrile were used to elute the columns, respectively, the collected eluents were freeze-dried and dissolved in 200 µL of deionized water and filtered by a […] sterile filter membrane before the analysis of high-performance liquid chromatography-ultraviolet (HPLC–UV). The HPLC–UV with a C18 reverse-phase column (ZORBAX Eclipse Plus C18 4.6 mm × 250 mm, 5 µm) conditions for detecting NZX were as follows: the mobile phase consisted of A: 0.1% trifluoroacetate […] in acetonitrile and B: 0.1%TFA in water; the injection volume was 40 μL; the wavelength of UV detector was 280 nm; flow rate was 1.0 mL/min; the column temperature was 35 °C, and the elution was conducted with a linear gradient of 20–45% mobile phase A for 16 min. The linear relationship, limits of detection (LOD), limits of quantitation (LOQ), accuracy and precision were determined by adding the known concentrations of NZX into the extracted blank matrix of mammary gland. Each concentration was conducted three times.
A 100 μg/mL of NZX was suspended in mammary gland tissue homogenate or milk, respectively, and then incubated at 37 °C for 0, 8, 16 and 24 h, respectively. Afterwards, samples were pretreated and quantified as the above methods. The results were expressed as a ratio of the mean peak area measured at different times divided by the mean value of the initial value.

[1] = Pharmacokinetics in mouse mammary gland after intramammary administration; assay type: in vivo
Experimental: as §1
A pharmacokinetic assessment of a single dose of NZX at 100 μg/gland was carried out using 36 individual healthy lactating mice following intramammary administration (Wang et al. [2021]). Mammary tissues were harvested at 0.083, 0.5, 1, 2, 3, 4, 6, 9, 12, 16, 20 and 24 h with three mice (six mammary in total) at each time point. The collected samples were then placed into 2 mL eppendorf tubes and stored at − 80 °C before the content determination of NZX in mammary gland by HPLC–UV. Briefly, a portion of the mammary gland tissues (0.5 g) was weighed in 2 mL eppendorf tubes, homogenized for 20 min (50 HZ and 4 °C) in 0.5 mL of PBS solution, and pretreated and purified by a MAX cartridge as described above. The pharmacokinetic parameters of NZX in mammary gland tissues were calculated by non-compartmental model using WinNonlin Phoenix version 8.1 (Pharsight Co., Mountain View, CA, USA).

S. aureus E48 = conditions: 1 × 10^5 CFU/mL, 16–18 h, 37 °C, value marked a, already published, ref Zheng et al. [2022]; cited from earlier work
Text: Table 1 The MICs, MBCs and MPCs of NZX and antibiotics against S. aureus strains (μM) | column: S. aureus E48 / MIC

S. aureus ATCC 25923 = conditions: 1 × 10^5 CFU/mL, 16–18 h, 37 °C, value marked a, already published, ref Zheng et al. [2022]; cited from earlier work
Text: Table 1 The MICs, MBCs and MPCs of NZX and antibiotics against S. aureus strains (μM) | column: S. aureus ATCC 25923 / MIC

S. aureus ATCC 43300 = conditions: 1 × 10^5 CFU/mL, 16–18 h, 37 °C, value marked a, already published, ref Zheng et al. [2022]; cited from earlier work
Text: Table 1 The MICs, MBCs and MPCs of NZX and antibiotics against S. aureus strains (μM) | column: S. aureus ATCC 43300 / MIC

S. agalactiae = conditions: against S. agalactiae; ref Wu et al. [2022]; cited from earlier work
Text: MPCs and PAEs were also important parameters to allow antimicrobial dosage regimens to be developed in a much more scientific approach to reduce treatment cost, and the incidences of drug resistant bacteria and avoid unnecessary drug toxicity (Mackenzie and Gould [1993]).

[2] = mouse mammary tissue, single 100 μg/gland intramammary, healthy lactating mice, HPLC–UV, non-compartmental model

CC[C@H](C)[C@@H]1NC(=O)[C@H](CO)NC(=O)[C@H](CCCCN)NC(=O)[C@@H]2CSSC[C@@H](C(=O)N[C@@H](Cc3ccc(O)cc3)C(=O)O)NC(=O)[C@H](CCCCN)NC(=O)[C@@H]3CSSC[C@H](NC(=O)[C@H](CCC(N)=O)NC(=O)[C@H]([C@@H](C)CC)NC(=O)[C@H](CC(=O)O)NC(=O)[C@H](CC(=O)O)NC(=O)[C@H](CCC(=O)O)NC(=O)[C@H](CO)NC(=O)[C@H](Cc4c[nH]c5ccccc45)NC(=O)[C@@H]4CCCN4C(=O)CNC(=O)[C@H](CC(N)=O)NC(=O)[C@@H](NC(=O)CNC(=O)[C@H](Cc4ccccc4)NC(=O)CN)CSSC[C@H](NC(=O)[C@H](Cc4ccc(O)cc4)NC(=O)CNC(=O)CNC(=O)[C@H](CCCCN)NC(=O)[C@H](Cc4ccc(O)cc4)NC(=O)CNC(=O)[C@H](CCCCN)NC1=O)C(=O)N[C@@H](C)C(=O)N[C@@H](CCCNC(=N)N)C(=O)NCC(=O)NCC(=O)N[C@@H](Cc1ccccc1)C(=O)N[C@@H](C(C)C)C(=O)N3)C(=O)N[C@@H](Cc1c[nH]cn1)C(=O)N[C@@H](CC(N)=O)C(=O)N[C@@H](Cc1c[nH]cn1)C(=O)N2 [NZX] (H-GFGCNGPWSEDDIQCHNHCKSIKGYKGGYCARGGFVCKCY-OH; disulfide 4-30, 15-37, 19-39; N-terminus and C-terminus assumed)
inflammatory symptoms of mammary tissue (H&E histology) (three S. aureus strains; 24 h after treatment): obviously improved
pathological scores of mammary tissues (three S. aureus strains; compared with the PC group): significantly decreased
remaining at 8 h, 100 μg/mL (Stability of NZX in milk; 8 h): 103%
remaining at 16 h, 100 μg/mL (Stability of NZX in milk; 16 h): 91.8%
remaining at 24 h, 100 μg/mL (Stability of NZX in milk; 24 h): 85.4%
AUC, area under the concentration time curve from time 0 to 24 h [1, 2]: 391 µg·h/g
Cmax, peak concentration [1, 2]: 32.49 µg/g
Tmax, peak time [1, 2]: 0.5 h
T1/2, terminal elimination half-life ([1]; mouse mammary tissue, single 100 μg/gland intramammary, healthy lactating mice, HPLC–UV, non-compartmental model, three mice (six glands) per time point): 35.11 h
tissue distribution after administration by milk duct ([1]; mouse, no detection in serum and organs (data not shown)): only distributed into mammary gland tissues
MIC (S. aureus E48): 0.23^a μM
MIC (S. aureus ATCC 25923): 0.46^a μM
MIC (S. aureus ATCC 43300): 0.23^a μM
MPC (S. agalactiae): 1.82 µM
